Reference: patent publication US12378201B2, “Histone demethylase inhibitors for treating cancers” (The Board of Regents of the University of Texas System, priority 2019, dated 2025)

How the values were obtained:
[1] = system: LNCaP and 22rv1 cell lines; test: SAR statements on LNCaP and 22rv1 cell lines; format: cell-based; conditions: LNCaP 1 μM, 22rv1 0.5 μM
Method: All compounds were evaluated for their effects on LNCaP and 22rv1 cell lines at 1 and 0.5 μM concentrations, respectively. […] For this purpose different analogues of B-3 with chain length varying from 0 to 4 carbon were synthesized (Table 1). […] In view of the availability of a variety of commercially available benzyl amines over phenyl propyl amines and method to functionalize analogues with 1C chain compound 14c was selected for further modification.

22rv1 = test: Effect on 22rv1 cell viability; conditions: for % Cell Viability of 22rv1 at 1 μM: at 1 μM (stated in cell)
Method: (§1) The initial interest was to see the importance of length of side chain on B-3. […] Relative cell growth can be assessed using the MTT (3-(4,5-dimethylthiazol-2-yl)-2,5-diphenyltetrazolium bromide) assay, a colorimetric assay for assessing cell metabolic activity. Cells (1000 to 2000 cells/well) in 150 μL culture medium were seeded in wells of a 96-well plate one day before various concentrations of drugs were added. After continuing culture in the presence of the drugs for the indicated time (3-4 days), 20 μL of 5 mg/mL MTT solution (Sigma-Aldrich) was added into each well. After incubation at 37° C. for 30 min, the culture medium was removed and 100 μL of DMSO was added to dissolve MTT crystals. Plates were shaken for 15 min at room temperature and absorbance at OD590 was read by plate reader.

LnCap cells = test: Effect on LnCap cell viability; conditions: for viability at 1 µM: Homo sapiens, LNCaP, read-out: % Cell Viability of LnCap cells at 1 μM, 1 μM
Method: as §1

SMILES	activity on cell lines, in words (SAR) [1]	% Cell Viability of 22rv1 at 0.5 μM (22rv1)	% Cell Viability of LnCap cells at 1 μM (LnCap cells)	also measured
O=C(NCCCCc1ccccc1)c1cccc(-c2cc(O)c3ncccc3c2)c1 [Compound 14a]	deterioration of activity	–	–	–
O=C(NCCc1ccccc1)c1cccc(-c2cc(O)c3ncccc3c2)c1 [Compound 14b]	deterioration of activity	83.7% (B-3,	–	–
O=C(NCc1ccccc1)c1cccc(-c2cc(O)c3ncccc3c2)c1 [Compound 14c]	restoration of activity	79.3% (B-3,	–	–
O=C(Nc1ccccc1)c1cccc(-c2cc(O)c3ncccc3c2)c1 [Compound 14d]	poor activity	–	–	–
O=C(NCc1ccc(F)cc1)c1cccc(-c2cc(O)c3ncccc3c2)c1 [Compound 15a]	–	–	72.8%	–
O=C(NCc1cccc(O)c1)c1cccc(-c2cc(O)c3ncccc3c2)c1 [Compound 15e]	–	–	87.9%	–
O=C(NCc1ccccc1O)c1cccc(-c2cc(O)c3ncccc3c2)c1 [Compound 15f]	–	–	56.9%	–
COc1ccc(CNC(=O)c2cccc(-c3cc(O)c4ncccc4c3)c2)cc1 [Compound 15g]	–	–	68.4%	–
COc1cccc(CNC(=O)c2cccc(-c3cc(O)c4ncccc4c3)c2)c1 [Compound 15h]	–	–	88.5% (B-3, ND)	–
COc1cc(CNC(=O)c2cccc(-c3cc(O)c4ncccc4c3)c2)cc(OC)c1OC [Compound 15k]	–	–	98.1 (B-3, ND) %	–
COc1ccc(CNC(=O)c2cccc(-c3cc(O)c4ncccc4c3)c2)cc1OC [Compound 15l]	–	–	75.7 (B-3, ND) %	–
O=C(NCc1ccc(C(F)(F)F)cc1)c1cccc(-c2cc(O)c3ncccc3c2)c1 [Compound 15m]	–	–	67.7%	–
O=C(NCc1cccc(C(F)(F)F)c1)c1cccc(-c2cc(O)c3ncccc3c2)c1 [Compound 15n]	–	–	75.4%	–
O=C(NCc1ccccc1C(F)(F)F)c1cccc(-c2cc(O)c3ncccc3c2)c1 [Compound 15o]	–	–	94.5%	–
O=C(NCc1cc(C(F)(F)F)cc(C(F)(F)F)c1)c1cccc(-c2cc(O)c3ncccc3c2)c1 [Compound 15p]	–	–	62.5%	–
O=C(NCc1ccc(C(F)(F)F)cc1F)c1cccc(-c2cc(O)c3ncccc3c2)c1 [Compound 15r]	–	–	101%	–
N#Cc1ccc(CNC(=O)c2cccc(-c3cc(O)c4ncccc4c3)c2)cc1 [Compound 15s]	–	–	52.8% (B-3, ND)	–
CN(C)c1ccc(CNC(=O)c2cccc(-c3cc(O)c4ncccc4c3)c2)cc1 [Compound 15t]	–	19.6%	66.3%	–
O=C(NCc1ccncc1)c1cccc(-c2cc(O)c3ncccc3c2)c1 [Compound 15u]	–	–	70.9%	–
O=C(NCc1cccs1)c1cccc(-c2cc(O)c3ncccc3c2)c1 [Compound 15v]	–	–	79.8%	–
O=C(NCC1CC1)c1cccc(-c2cc(O)c3ncccc3c2)c1 [Compound 15w]	–	–	60.7%	–
O=C(NCC1CCCCC1)c1cccc(-c2cc(O)c3ncccc3c2)c1 [Compound 15x]	–	–	104% (B-3, ND)	–
O=C(NCc1ccc(Oc2ccccc2)cc1)c1cccc(-c2cc(O)c3ncccc3c2)c1 [Compound 16a]	significant improvement of activity over B-3	–	–	% Cell Viability of 22rv1 at 1 μM (22rv1): 29.5%

SMILES	activity on cell lines, in words (SAR) [1]	% Cell Viability of 22rv1 at 0.5 μM (22rv1)	% Cell Viability of LnCap cells at 1 μM (LnCap cells)	also measured
O=C(NCc1ccc(Oc2ccc(Cl)cc2)cc1)c1cccc(-c2cc(O)c3ncccc3c2)c1 [Compound 16b]	–	–	–	% Cell Viability of 22rv1 at 1 μM (22rv1): 33.2%
O=C(NCc1ccc(Oc2ccccc2Cl)cc1)c1cccc(-c2cc(O)c3ncccc3c2)c1 [Compound 16c]	–	–	–	% Cell Viability of 22rv1 at 1 μM (22rv1): 38.1%
O=C(NCc1ccc(Oc2ccc(F)cc2)cc1)c1cccc(-c2cc(O)c3ncccc3c2)c1 [Compound 16d]	–	–	–	% Cell Viability of 22rv1 at 1 μM (22rv1): 35.1%
O=C(NCc1ccc(-c2ccc(C(F)(F)F)cc2)cc1)c1cccc(-c2cc(O)c3ncccc3c2)c1 [Compound 16f]	–	–	44.2%	–
CC1Cc2ccc(-c3ccc(CNC(=O)c4cccc(-c5cc(O)c6ncccc6c5)c4)cc3)cc2O1 (stereo not drawn) [Compound 16g]	–	–	30.0%	–
O=C(NCc1cccc(-c2ccccc2)c1)c1cccc(-c2cc(O)c3ncccc3c2)c1 [Compound 16h]	–	26.9%	21.8%	–
O=C(NCc1cccc(-c2ccc(F)cc2)c1)c1cccc(-c2cc(O)c3ncccc3c2)c1 [Compound 16i]	–	42.01%	17.3%	–
O=C(NCc1ccccc1-c1ccc(CN2CCCC2=O)cc1)c1cccc(-c2cc(O)c3ncccc3c2)c1 [Compound 16j]	–	14.3%	10.9%	inhibition of 22rv1 cells, in words (22rv1; compared with B-3): inhibited 22rv1 cells much better than B-3
O=C(NCc1ccc(C(=O)c2ccccc2)cc1)c1cccc(-c2cc(O)c3ncccc3c2)c1 [Compound 16k]	–	6.4%	26.7 (B-3, ND) %	–
O=C(O)c1ccc(CNC(=O)c2cccc(-c3cc(O)c4ncccc4c3)c2)cc1 [Compound 17a]	–	–	–	viability at 1 µM (LnCap cells): 97.5%
NC(=O)c1ccc(CNC(=O)c2cccc(-c3cc(O)c4ncccc4c3)c2)cc1 [Compound 17b]	lower activity than B-3	78.4%	–	–
COC(=O)c1ccc(CNC(=O)c2cccc(-c3cc(O)c4ncccc4c3)c2)cc1 [Compound 17c]	–	–	–	viability at 0.5 µM (22rv1; Homo sapiens, 22Rv1, read-out: % Cell Viability of 22rv1 at 0.5 μM): 12.9%; viability at 1 µM (LnCap cells): 47.9%
CCOC(=O)c1ccc(CNC(=O)c2cccc(-c3cc(O)c4ncccc4c3)c2)cc1 [Compound 17d]	–	22.7%	–	–
CCCOC(=O)c1ccc(CNC(=O)c2cccc(-c3cc(O)c4ncccc4c3)c2)cc1 [Compound 17e]	better than compound 17c	7.9%	–	–
CC(C)CNC(=O)c1ccc(CNC(=O)c2cccc(-c3cc(O)c4ncccc4c3)c2)cc1 [Compound 17f]	proved useful	41.0%	–	–
CC(C)NC(=O)c1ccc(CNC(=O)c2cccc(-c3cc(O)c4ncccc4c3)c2)cc1 [Compound 17g]	proved useful	41.0%	–	–
O=C(NCc1ccc(C(=O)NC2CCCC2)cc1)c1cccc(-c2cc(O)c3ncccc3c2)c1 [Compound 17i]	loss of activity	29.8%	–	–
O=C(NCc1ccc(C(=O)NC2CCCCC2)cc1)c1cccc(-c2cc(O)c3ncccc3c2)c1 [Compound 17j]	significant jump in activity compared to B-3	5.0%	–	–
O=C(NCc1ccc(C(=O)NC2CCCCCC2)cc1)c1cccc(-c2cc(O)c3ncccc3c2)c1 [Compound 17k]	loss of activity	10.8%	–	–
O=C(NCc1ccc(C(=O)N[C@H]2CC[C@H](C(F)(F)F)CC2)cc1)c1cccc(-c2cc(O)c3ncccc3c2)c1 [Compound 17m]	much more active than compound 17n	–	24.2%	–
O=C(NCc1ccc(C(=O)N[C@H]2CC[C@@H](C(F)(F)F)CC2)cc1)c1cccc(-c2cc(O)c3ncccc3c2)c1 [Compound 17n]	17m (trans isomer) was much more active than compound 17n	–	–	–
O=C(NCc1ccc(C(=O)Nc2ccc(C(F)(F)F)cc2)cc1)c1cccc(-c2cc(O)c3ncccc3c2)c1 [Compound 17o]	significantly lower activities compared to compounds 17l and 17m	–	–	–
